Results published in patent US9752115B2, “Culture conditions for expansion of nephron progenitor cells” (Maine Medical Center Research Institute, priority 2014, dated 2017).

Columns and labels:
CITED1+ progenitors [1] = settings: serum free medium; BIO 2 μM, CHIR99021 3 μM; cited from earlier work
[2] = test system: E17.5 CITED1+ progenitors; assay: Subtraction of individual factors from NPEM, mouse progenitors; type: cell-based; settings: for competence for tubulogenesis after subtraction of the factor: 7 days in aggregate culture after monolayer; for progenitor growth and state in the absence of the factor: factor subtracted from NPEM, 3 days monolayer
Method: Flow cytometry. CITED1+ progenitors were purified from GFP+ kidneys isolated from Cited1creERT2-EGFP×ICR mice and cultured as described in the text. GFP fluorescence intensity and cell counts were collected on a FACSCalibur (BD) and data were analyzed using FlowJo software.
Using flow cytometry on E17.5 CITED1+ progenitors derived from Cited1creERT2-EGFP mice, the requirement for each of the culture additives to maintain cells in the undifferentiated state was evaluated by subtracting them from the medium (FIGS. 10A and 10B).
In the absence of LDN, nuclear localization of pSMAD1/5 increased dramatically, as did transcription of the SMAD response gene Cv2 (FIGS. 10C and 10D). […] In addition to losing CITED1 expression, progenitors cultured in the absence of LDN lost expression of characteristic marker genes including […], PAX2, WT1 and […], which may have helped to explain their lack of competence (FIG. 10F and FIG. 14). CITED1+ progenitors isolated from E13.5 kidneys also required LDN to expand while maintaining their competence to differentiate (FIG. 15).

CITED1+ progenitors [3] = assay: Aggregate culture tubulogenesis of purified CITED1+ progenitors; type: cell-based, mouse
Method: Cell culture. CITED1+ progenitors were purified from NZCs derived from E17.5 kidneys as previously described (Brown et al., 2011b; Brown et al., 2013). CITED1+ progenitors were cultured in monolayer on hESC qualified MatrigelTM coated plates (Corning). For human or mouse passage, cells were dissociated by incubation with TrypLE (Life Technologies) for 2 minutes at 37 C, washed and spun 2× at 300 g in autoMACs running buffer (Miltenyi) prior to resuspension in NPEM as described in Table 1. NPEM is changed every 2 days. Cells were differentiated in aggregate culture with CHIR (3 μM) in medium as previously described (Brown et al., 2013). To understand if these observations could be extrapolated to CITED1+ cells in culture, a series of experiments was performed upon nephron progenitor cells isolated from embryonic mouse kidneys. Using a previously developed isolation protocol, CITED1+ progenitors were harvested from embryonic mouse kidneys between the ages of E16.5 to P1 at near 100% purity, allowing interrogation of the CITED1+ population at multiple time points (FIGS. 7A and 7B) (Brown et al., 2013). However, CITED1 progenitor purity dropped to 75% by P2, likely due to the loss of CITED1+ progenitors that occurred during cessation (FIG. 7B and FIG. 6B).

[4] = test system: hESC-derived nephron progenitors; assay: Subtraction of individual components from NPEM, hESC-derived progenitors; type: cell-based, human; settings: passage 3 progenitors, 3 days monolayer
Method: FIGS. 19A and 19B show nephron progenitor marker expression in human ES cell derived cultures grown in the absence of individual factors. In FIG. 19A, passage 3 progenitors were grown in NPEM in the absence of individual factors for 3 days in monolayer culture and immunostained for CITED1, SIX2, PAX2 and WT1. Antibody staining is shown in red and nuclear counterstaining with DAPI is shown in blue. In FIG. 19B, passage 3 progenitors were grown in NPEM in the absence of the indicated factors for 3 days in monolayer culture and immunostained for PAX2.
To understand if cellular growth in NPEM could be directly extrapolated to human cells, the above analysis was repeated with nephron progenitor cells derived from hESCs using the Takasato protocol (Takasato et al., 2014). CITED1+/SIX2+/PAX2+/WT1+ cells generated using this procedure lost expression of nephron progenitor markers following a single passage (FIG. 12A and FIG. 18A). […] When LDN was eliminated from the medium during the passage 2 culture, cells lost expression of PAX2 (FIG. 12C).

cap mesenchyme = assay: Cited1/Six2 EGFP reporter expression in cap mesenchyme of treated pups; type: in vivo, mouse; settings: EGFP reporter mice, P2 and P3; untreated animals lost expression
Source text: (§1) Fluorescent imaging of GFP expression in cap mesenchymes “C” shown. […] Cap mesenchymes are outlined with dotted red lines. […] Percent remaining after LDN treatment quantified in graph. NZCs were isolated from 4 kidney pairs per treatment group and pooled. […] Representative image from 4 kidney pairs per group shown. […] Data represent the mean±SD of qPCR technical replicates from 5 (DMSO) and 6 (LDN) pooled kidney pairs.
(§2) Mouse strains and treatments. Animal care was in accordance with the National Research Council Guide for the Care and Use of Laboratory Animals and protocols were approved by the Institutional Animal Care and Use Committee of Maine Medical Center. CITED1 progenitors were derived from kidneys of Cited1creERT2-EGFP×ICR (Institute for Cancer Research mice) heterozygous mice. Cited1creERT2-EGFP and Six2cre-EGFP mouse strains are maintained on an FVB/NJ background (Boyle et al., 2008a; Kobayashi et al., 2008).
(§3) LDN was selected over other similar analogs because it is highly specific for SMAD1/5 and has been successfully used in vivo (Yu et al., 2008). […] To measure the differentiation status of nephron progenitor cells, Cited1creERT2-EGFP and Six2cre-EGFP mouse strains were used, which dynamically expressed fluorescent protein under the control of Cited1 and Six2 (Boyle et al., 2008a; Kobayashi et al., 2008). […]

SMAD1/5 phosphorylation = assay: pSMAD1/5 immunoblot of nephrogenic zone cells from LDN-treated newborn pups; type: in vivo, mouse; settings: immunoblot of isolated NZCs; 3 mg/kg intraperitoneal twice daily P0 until P2
Source text: as §1, §2, §3

ALK7 = target: T1, ALK7 (Homo sapiens, UniProt Q8NER5); settings: ALK7, not inhibited; cited from earlier work
T1 sequence (Q8NER5 21-493): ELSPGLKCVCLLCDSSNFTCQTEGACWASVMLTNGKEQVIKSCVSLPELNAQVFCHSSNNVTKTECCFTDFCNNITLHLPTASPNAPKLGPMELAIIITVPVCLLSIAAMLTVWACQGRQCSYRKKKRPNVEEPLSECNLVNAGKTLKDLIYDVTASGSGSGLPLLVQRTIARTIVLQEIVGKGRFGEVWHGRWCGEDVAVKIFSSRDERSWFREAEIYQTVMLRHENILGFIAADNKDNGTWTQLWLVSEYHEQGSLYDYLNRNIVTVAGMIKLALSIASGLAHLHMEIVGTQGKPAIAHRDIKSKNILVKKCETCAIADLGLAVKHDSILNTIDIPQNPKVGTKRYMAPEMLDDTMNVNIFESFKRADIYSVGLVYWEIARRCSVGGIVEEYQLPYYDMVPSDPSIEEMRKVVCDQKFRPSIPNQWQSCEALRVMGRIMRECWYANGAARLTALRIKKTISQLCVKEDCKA

SMILES	tubulogenesis in aggregate culture with WNT/β-catenin agonist (CITED1+ progenitors [1])	competence for tubulogenesis after subtraction of the factor [2]	progenitor growth and state in the absence of the factor [2]	tubulogenesis of P0 Cited1creERT2-EGFP progenitors (CITED1+ progenitors [3]; CHIR 3 μM, by day 4, GFP expression lost)	expression of CITED1, PAX2, SIX2 and WT1 after subtraction of the component [4]	expression of Cited1 and Six2 in cap mesenchyme (cap mesenchyme)	Cited1-driven GFP expression (CITED1+ progenitors [3]; LDN 75 nM added to CHIR 3 μM)	effect on CHIR-induced tubulogenesis (CITED1+ progenitors [3]; LDN 75 nM added to CHIR 3 μM)	reduction in SMAD1/5 phosphorylation compared to vehicle-treated controls (SMAD1/5 phosphorylation)	IC50 (ALK7)
O=C1Nc2cc(Br)ccc2/C1=C1/Nc2ccccc2/C1=N\O [BIO]	robust tubulogenesis	–	–	–	–	–	–	–	–	–
Cc1c[nH]c(-c2cnc(NCCNc3ccc(C#N)cn3)nc2-c2ccc(Cl)cc2Cl)n1 [CHIR99021]	robust tubulogenesis	still competent to undergo tubulogenesis	failed to expand but remained CITED1+	underwent tubulogenesis	critical dependence	–	–	–	–	–
c1ccc2c(-c3cnn4cc(-c5ccc(N6CCNCC6)cc5)cnc34)ccnc2c1 [LDN-193189]	–	unable to undergo differentiation	expanded but were largely CITED1 negative	–	critical dependence	expression was maintained	maintained GFP expression	blocked tubulogenesis	greater than 95%	> 500 nM
C[C@@H](N)[C@H]1CC[C@H](C(=O)Nc2ccncc2)CC1 [Y-27632]	–	still competent to undergo tubulogenesis	significant decrease in cell attachment	–	critical dependence	–	–	–	–	–
